Active and inactive are the calls of the source. The calls are words filed in the database; no cut-off is given here.
Columns and labels:
[1] = test system: Pseudomonas aeruginosa; test: Antibiofilm activity against Pseudomonas aeruginosa PA14 after 24 hrs by crystal violet staining based method; type: functional
[2] = test system: Pseudomonas aeruginosa; test: Inhibition of planktonic growth of Pseudomonas aeruginosa PA14 cells; type: organism-based
[3] = test system: Salmonella typhimurium; test: Antibiofilm activity against Salmonella typhimurium ATCC 14028 after 24 hrs by crystal violet staining based method; type: functional, Salmonella enterica subsp. enterica serovar Typhimurium
[4] = test system: Salmonella typhimurium; test: Inhibition of planktonic growth of Salmonella typhimurium ATCC 14028; type: organism-based, Salmonella enterica subsp. enterica serovar Typhimurium; details: Salmonella enterica
[5] = test system: Staphylococcus aureus; test: Antibiofilm activity against Staphylococcus aureus SH1000 after 48 hrs by crystal violet staining based method; type: functional
[6] = test system: Staphylococcus aureus; test: Inhibition of planktonic growth of Staphylococcus aureus SH1000; type: organism-based
[7] = test system: A-375; test: Antiproliferative activity against human A375 cells after 48 hrs by MTT assay; type: functional, cell-based; details: A-375, 48 h
[8] = test system: MIA PaCa-2; test: Antiproliferative activity against human MIAPaCa2 cells after 48 hrs by MTT assay; type: functional, cell-based; details: MIA PaCa-2, 48 h
[9] = test system: A-375; test: Cytotoxicity against human A375 cells assessed as reduction in cell viability at IC50 concentration after 24 hrs by calcein AM-dye based assay; type: functional
[10] = test system: MIA PaCa-2; test: Cytotoxicity against human MIAPaCa2 cells assessed as reduction in cell viability at IC50 concentration after 24 hrs by calcein AM-dye based assay; type: functional
[11] = test system: A-375; test: Antiproliferative activity against human A375 cells assessed as reduction in colony forming ability at IC50 concentration after 10 to 14 days by crystal violet-staining based assay; type: functional, cell-based
[12] = test system: MIA PaCa-2; test: Antiproliferative activity against human MIAPaCa2 cells assessed as reduction in colony forming ability at IC50 concentration after 10 to 14 days by crystal violet-staining based assay; type: functional, cell-based
[13] = test system: A-375; test: Cell cycle arrest in human A375 cells assessed as accumulation at subG1 phase at IC50 concentration after 48 hrs by propidium iodide staining based flow cytometry (reference value: 1.1 +/- 0.4%); type: functional
[14] = test system: A-375; test: Cell cycle arrest in human A375 cells assessed as accumulation at G0/G1 phase at IC50 concentration after 48 hrs by propidium iodide staining based flow cytometry (reference value: 64.18 +/- 2.6%); type: functional
[15] = test system: A-375; test: Cell cycle arrest in human A375 cells assessed as accumulation at S phase at IC50 concentration after 48 hrs by propidium iodide staining based flow cytometry (reference value: 30.48 +/- 1.4%); type: functional
[16] = test system: A-375; test: Cell cycle arrest in human A375 cells assessed as accumulation at G2/M phase at IC50 concentration after 48 hrs by propidium iodide staining based flow cytometry (reference value: 8.18 +/- 2.2%); type: functional
[17] = test system: MIA PaCa-2; test: Cell cycle arrest in human MIAPaCa2 cells assessed as accumulation at subG1 phase at IC50 concentration after 48 hrs by propidium iodide staining based flow cytometry (reference value: 1.53 +/- 0.4%); type: functional
[18] = test system: MIA PaCa-2; test: Cell cycle arrest in human MIAPaCa2 cells assessed as accumulation at G0/G1 phase at IC50 concentration after 48 hrs by propidium iodide staining based flow cytometry (reference value: 66.05 +/- 2.2%); type: functional
[19] = test system: MIA PaCa-2; test: Cell cycle arrest in human MIAPaCa2 cells assessed as accumulation at S phase at IC50 concentration after 48 hrs by propidium iodide staining based flow cytometry (reference value: 17.29 +/- 1.8%); type: functional
[20] = test system: MIA PaCa-2; test: Cell cycle arrest in human MIAPaCa2 cells assessed as accumulation at G2/M phase at IC50 concentration after 48 hrs by propidium iodide staining based flow cytometry (reference value: 16.66 +/- 0.8%); type: functional

Structure (SMILES) | MBIC50 [1] [µM] | IC50 [2] [µM] | MBIC50 [3] [µM] | IC50 [4] [µM] | MBIC50 [5] [µM] | IC50 [6] [µM] | IC50 [7] [µM] | IC50 [8] [µM] | Activity [9] | Activity [10] | Activity [11] | Activity [12] | Activity [13] [%] | Activity [14] [%] | Activity [15] [%] | Activity [16] [%] | Activity [17] [%] | Activity [18] [%] | Activity [19] [%] | Activity [20] [%]
CCCCCc1nc(N)n(CC(=O)Nc2ccc(C)cc2)c1-c1ccccc1Br | 42.4 | 76 | 31.5 | 200 | 29.8 | 33.2 | 4.3 | 5.6 | – | – | – | – | – | – | – | – | – | – | – | –
CCCCCc1nc(N)n(CC(=O)Nc2ccccc2)c1-c1ccccc1Br | >400 | > 400 | >400 | > 400 | 21.3 | > 400 | 26.4 | 40.6 | – | – | – | – | – | – | – | – | – | – | – | –
O=C(N/N=C/c1ccc([N+](=O)[O-])o1)c1ccc(O)cc1 [NIFUROXAZIDE] | >400 | > 400 | >400 | > 400 | >400 | > 400 | – | – | – | – | – | – | – | – | – | – | – | – | – | –
CC(=O)O[C@H]1C(=O)[C@@]2(C)[C@H]([C@H](OC(=O)c3ccccc3)[C@]3(O)C[C@H](OC(=O)[C@H](O)[C@@H](NC(=O)c4ccccc4)c4ccccc4)C(C)=C1C3(C)C)[C@]1(OC(C)=O)CO[C@@H]1C[C@@H]2O [PACLITAXEL] | – | – | – | – | – | – | 0.7 | 2.5 | – | – | – | – | – | – | – | – | – | – | – | –
Nc1nc(CC2CCCCC2)c(-c2ccccc2Br)n1CC(=O)Nc1ccccc1 | >400 | > 400 | >400 | > 400 | >400 | > 400 | 40.6 | 89 | – | – | – | – | – | – | – | – | – | – | – | –
Cc1ccc(NC(=O)Cn2c(N)nc(Cc3ccccc3)c2-c2ccccc2Br)cc1 | 16.8 | 13.8 | 6 | 29.8 | 7.6 | 12.3 | 2 | 3.8 | – | – | – | – | – | – | – | – | – | – | – | –
Nc1nc(Cc2ccccc2)c(-c2ccccc2Br)n1CC(=O)NCc1ccccc1 | 382.1 | 55.7 | 38.8 | > 400 | 41.5 | 55.7 | – | – | – | – | – | – | – | – | – | – | – | – | – | –
CC(C)(C)c1ccc(Cc2nc(N)n(CC(=O)Nc3ccccc3)c2-c2ccccc2Br)cc1 | 124.3 | > 400 | 12.5 | > 400 | 6.5 | 7.8 | 2.8 | 4.9 | – | – | – | – | – | – | – | – | – | – | – | –
Cc1ccc(Cc2nc(N)n(CC(=O)Nc3ccc(C)cc3)c2-c2ccccc2Br)cc1 | 191 | 10.9 | 3.6 | > 400 | 5.5 | 5.8 | 1.3 | 2.9 | Active | Active | Active | Active | 24.71 | 36.34 | 26.59 | 66.85 | 16.33 | 36.39 | 17.04 | 48.99
CCCCCCCc1nc(N)n(CC(=O)Nc2ccccc2)c1-c1ccccc1Br | 221.9 | > 400 | 114.8 | > 400 | 18.1 | 70.8 | 9.2 | 7.9 | – | – | – | – | – | – | – | – | – | – | – | –
Cc1ccc(NC(=O)Cn2c(N)nc(CC3CCCCC3)c2-c2ccccc2Br)cc1 | >400 | > 400 | >400 | > 400 | >400 | > 400 | 17.5 | 48.8 | – | – | – | – | – | – | – | – | – | – | – | –
Cc1ccc(NC(=O)Cn2c(N)nc(CC3CC3)c2-c2ccccc2Br)cc1 | 16 | 23.6 | 21.3 | 24.5 | 21.9 | 30.6 | 2.6 | 3.5 | – | – | – | – | – | – | – | – | – | – | – | –
CC(C)(C)c1ccc(Cc2nc(N)n(CC(=O)Nc3ccc([N+](=O)[O-])cc3)c2-c2ccccc2Br)cc1 | >400 | > 400 | >400 | > 400 | >400 | > 400 | – | – | – | – | – | – | – | – | – | – | – | – | – | –
Cc1ccc(NC(=O)Cn2c(N)nc(Cc3ccc(C(C)(C)C)cc3)c2-c2ccccc2Br)cc1 | >400 | > 400 | 17.6 | > 400 | 3.9 | 7.9 | 1.4 | 3.4 | – | – | – | – | – | – | – | – | – | – | – | –
